Data reported in patent publication US10604739B2, “Cardiomyocyte production” (Cellular Dynamics International, Inc., priority 2009, dated 2020).

Columns and labels:
Format in all cases: cell-based, human
[1] = test system: iPS cells; assay: H1152 duration and aggregate formation, Experiment 2: cardiomyocyte differentiation; set-up: Average Cardiomyocyte Yield: unit not given here; conditions: for Average # cTnT Cells/Liter (in millions) / Average % Troponin T+ / Average Cardiomyocyte Yield / Average Cell Count per flask (in millions) / Average ratio iPS to CM: day 14, T25
Procedure: (§1) The purpose of this Example was to see the effect of 1 day or 2 day treatment with the compound on Cardiomyocyte development. Initial testing with H1152 included the compound in the media: 1 μM on day one with the TeSR media and 0.5 μM on day 2 with the compound in the aggregate transition media. After adopting a new method which included the H1152 compound for 1 day at 1 μM only, there appeared to be a loss of efficiency with the initial cell survival, resulting in this study to determine if extended H1152 would increase cell survival without a negative impact on […]. Cardiomyocyte differentiation conditions and experimental parameters were summarized in Tables 11-12 and 13-14 for Experiments 1 and 2, respectively. Critical reagents and materials were obtained as described in the previous example.

[2] = test system: iPS cells; assay: H1152 duration and aggregate formation, Experiment 1: cardiomyocyte differentiation; set-up: Average Cardiomyocyte Yield: unit not given here; conditions: for Average # cTnT Cells/Liter (in millions) / Average % Troponin T+ / Average Cardiomyocyte Yield / Average Cell Count per flask (in millions) / Average ratio iPS to CM: day 14, T25
Procedure: as §1

[3] = test system: IPS 6.1 cells; assay: Effect of different concentrations of H1152 on cell survival; conditions: one day dose, FIG. 28
Procedure: FIG. 28: Effect of different concentrations of H1152 on cell survival with one day dose of H1152 on IPS 6.1 cells.
Effect of different concentrations of H1152 was also tested on cell survival with one day dose of H1152 on IPS 6.1 cells (FIG. 28).

[4] = 3e5 cells/ml seeding, H1152 1 μM 24 hour exposure
[5] = 3e5 cells/ml seeding, H1152 1 μM 48 hour exposure
[6] = 5e5 cells/ml seeding, H1152 1 μM 24 hour exposure
[7] = 5e5 cells/ml seeding, H1152 1 μM 48 hour exposure
[8] = 10e5 cells/ml seeding, H1152 1 μM 24 hour exposure
[9] = 10e5 cells/ml seeding, H1152 1 μM 48 hour exposure
[10] = 15e5 cells/ml seeding, H1152 1 μM 24 hour exposure
[11] = 15e5 cells/ml seeding, H1152 1 μM 48 hour exposure
[12] = 7e5 cells/ml seeding, H1152 1 μM 24 hour exposure
[13] = 7e5 cells/ml seeding, H1152 1 μM 48 hour exposure

SMILES: Cc1cncc2cccc(S(=O)(=O)N3CCCNC[C@@H]3C)c12 [H1152]
- Average # cTnT Cells/Liter (in millions) [1, 4]: 11.06 ± 9.07 millions
- Average % Troponin T+ [1, 4]: 12.71 ± 1.72%
- Average Cardiomyocyte Yield [1, 4]: 66383 ± 54471
- Average Cell Count per flask (in millions) [1, 4]: 0.57 ± 0.54 millions
- Average ratio iPS to CM [1, 4]: 33 ± 20
- Average # cTnT Cells/Liter (in millions) [1, 5]: 34.67 ± 15.81 millions
- Average % Troponin T+ [1, 5]: 7.99 ± 2.24%
- Average Cardiomyocyte Yield [1, 5]: 208066 ± 94874
- Average Cell Count per flask (in millions) [1, 5]: 2.52 ± 0.51 millions
- Average ratio iPS to CM [1, 5]: 8 ± 4
- Average # cTnT Cells/Liter (in millions) [1, 6]: 8.84 ± 6.01 millions
- Average % Troponin T+ [1, 6]: 9.98 ± 2.40%
- Average Cardiomyocyte Yield [1, 6]: 53055 ± 36109
- Average Cell Count per flask (in millions) [1, 6]: 0.52 ± 0.35 millions
- Average ratio iPS to CM [1, 6]: 67 ± 49
- Average # cTnT Cells/Liter (in millions) [1, 7]: 38.40 ± 23.14 millions
- Average % Troponin T+ [1, 7]: 5.20 ± 3.33%
- Average Cardiomyocyte Yield [1, 7]: 230454 ± 138874
- Average Cell Count per flask (in millions) [1, 7]: 4.56 ± 0.48 millions
- Average ratio iPS to CM [1, 7]: 14 ± 7
- Average # cTnT Cells/Liter (in millions) [1, 8]: 14.18 ± 7.34 millions
- Average % Troponin T+ [1, 8]: 5.42 ± 1.08%
- Average Cardiomyocyte Yield [1, 8]: 85129 ± 44092
- Average Cell Count per flask (in millions) [1, 8]: 1.54 ± 063 millions
- Average ratio iPS to CM [1, 8]: 72 ± 42
- Average # cTnT Cells/Liter (in millions) [1, 9]: 16.03 ± 13.63 millions
- Average % Troponin T+ [1, 9]: 1.40 ± 1.45%
- Average Cardiomyocyte Yield [1, 9]: 96206 ± 81824
- Average Cell Count per flask (in millions) [1, 9]: 7.84 ± 1.14 millions
- Average ratio iPS to CM [1, 9]: 77 ± 44
- Average # cTnT Cells/Liter (in millions) [1, 10]: 28.54 ± 10.83 millions
- Average % Troponin T+ [1, 10]: 6.48 ± 2.42%
- Average Cardiomyocyte Yield [1, 10]: 171264 ± 65034
- Average Cell Count per flask (in millions) [1, 10]: 2.63 ± 0.14 millions
- Average ratio iPS to CM [1, 10]: 48 ± 17
- Average # cTnT Cells/Liter (in millions) [1, 11]: 28.13 ± 30.17 millions
- Average % Troponin T+ [1, 11]: 2.36 ± 2.03%
- Average Cardiomyocyte Yield [1, 11]: 168815 ± 181030
- Average Cell Count per flask (in millions) [1, 11]: 6.16 ± 1.31 millions
- Average ratio iPS to CM [1, 11]: 97 ± 85
- Effect of increasing H1152 exposure duration to 48 hours on cTnT yield ([1]; Experiment 2, cultures initially seeded with 3e5 and 5e5 cells/mL, 14 days): increased cTnT yield in the cultures initially seeded with 3e5 and 5e5 cells/mL
- Average # cTnT Cells/Liter (in millions) [2, 4]: 2.91 ± 1.27 millions
- Average % Troponin T+ [2, 4]: 6.83 ± 0.26%
- Average Cardiomyocyte Yield [2, 4]: 17445 ± 7677
- Average Cell Count per flask (in millions) [2, 4]: 0.25 ± 0.11 millions
- Average ratio iPS to CM [2, 4]: 99 ± 45
- Average # cTnT Cells/Liter (in millions) [2, 5]: 9.92 ± 0.25 millions
- Average % Troponin T+ [2, 5]: 4.40 ± 1.00%
- Average Cardiomyocyte Yield [2, 5]: 59575 ± 1514
- Average Cell Count per flask (in millions) [2, 5]: 1.39 ± 0.28 millions
- Average ratio iPS to CM [2, 5]: 25 ± 1
- Average # cTnT Cells/Liter (in millions) [2, 6]: 3.02 ± 1.66 millions
- Average % Troponin T+ [2, 6]: 6.26 ± 3.40%
- Average Cardiomyocyte Yield [2, 6]: 18123 ± 10004
- Average Cell Count per flask (in millions) [2, 6]: 0.46 ± 0.48 millions
- Average ratio iPS to CM [2, 6]: 180 ± 119
- Average # cTnT Cells/Liter (in millions) [2, 7]: 19.52 ± 8.01 millions
- Average % Troponin T+ [2, 7]: 3.37 ± 1.12%
- Average Cardiomyocyte Yield [2, 7]: 117137 ± 48094
- Average Cell Count per flask (in millions) [2, 7]: 3.41 ± 0.47 millions
- Average ratio iPS to CM [2, 7]: 24 ± 11
- Average # cTnT Cells/Liter (in millions) [2, 12]: 6.54 ± 0.91 millions
- Average % Troponin T+ [2, 12]: 5.41 ± 1.58%
- Average Cardiomyocyte Yield [2, 12]: 39272 ± 5494
- Average Cell Count per flask (in millions) [2, 12]: 0.77 ± 0.29 millions
- Average ratio iPS to CM [2, 12]: 90 ± 12
- Average # cTnT Cells/Liter (in millions) [2, 13]: 11.71 ± 6.74 millions
- Average % Troponin T+ [2, 13]: 2.23 ± 0.28%
- Average Cardiomyocyte Yield [2, 13]: 70299 ± 40479
- Average Cell Count per flask (in millions) [2, 13]: 3.19 ± 1.81 millions
- Average ratio iPS to CM [2, 13]: 72 ± 58
- Average # cTnT Cells/Liter (in millions) [2, 8]: 8.53 ± 3.67 millions
- Average % Troponin T+ [2, 8]: 3.29 ± 2.73%
- Average Cardiomyocyte Yield [2, 8]: 51174 ± 22025
- Average Cell Count per flask (in millions) [2, 8]: 1.95 ± 0.91 millions
- Average ratio iPS to CM [2, 8]: 116 ± 66
- Average # cTnT Cells/Liter (in millions) [2, 9]: 37.33 ± 11.90 millions
- Average % Troponin T+ [2, 9]: 4.70 ± 1.08%
- Average Cardiomyocyte Yield [2, 9]: 224015 ± 71410
- Average Cell Count per flask (in millions) [2, 9]: 4.69 ± 0.64 millions
- Average ratio iPS to CM [2, 9]: 24 ± 9
- Average # cTnT Cells/Liter (in millions) [2, 10]: 13.35 ± 5.17 millions
- Average % Troponin T+ [2, 10]: 2.05 ± 0.89%
- Average Cardiomyocyte Yield [2, 10]: 80131 ± 31034
- Average Cell Count per flask (in millions) [2, 10]: 4.01 ± 0.46 millions
- Average ratio iPS to CM [2, 10]: 105 ± 43
- Average # cTnT Cells/Liter (in millions) [2, 11]: 49.87 ± 21.23 millions
- Average % Troponin T+ [2, 11]: 4.84 ± 1.61%
- Average Cardiomyocyte Yield [2, 11]: 299246 ± 127411
- Average Cell Count per flask (in millions) [2, 11]: 6.16 ± 1.31 millions
- Average ratio iPS to CM [2, 11]: 28 ± 10
- Effect of increasing H1152 exposure duration to 48 hours on cTnT yield ([2]; Experiment 1, each cell density condition, 14 days): increased cTnT yield in each cell density condition
- Cell survival ([2]; two day treatment at 1 μM, each of the experiments): significant increase in the cell survival
- Optimal concentration for aggregate formation [3]: 1 µM
